Results reported in US7135466B2 (Kirin Beer Kabushiki Kaisha, priority 1999, dated 2006).
Like-named read-outs stand apart in the source and are kept apart here.

Key:
PDGF-Ra = target: T1, PDGF-Ra (Homo sapiens, UniProt P16234); assay: Inhibitory activity against PDGF-Ra phosphorylation by PDGF-AA stimulation using G292; format: cell-based; settings: for IC50: > means inhibition at indicated concentration not more than 50%, < and << not less than 50%, read-out: PDGF (E) IC50; for inhibition at 0.1 µM: G292, at 100 nM, read-out: PDGF (E) inhibition (%) at 100 nM
T1 construct: host or cells: G-292 human osteosarcoma cells
T1 sequence (P16234 24-1089): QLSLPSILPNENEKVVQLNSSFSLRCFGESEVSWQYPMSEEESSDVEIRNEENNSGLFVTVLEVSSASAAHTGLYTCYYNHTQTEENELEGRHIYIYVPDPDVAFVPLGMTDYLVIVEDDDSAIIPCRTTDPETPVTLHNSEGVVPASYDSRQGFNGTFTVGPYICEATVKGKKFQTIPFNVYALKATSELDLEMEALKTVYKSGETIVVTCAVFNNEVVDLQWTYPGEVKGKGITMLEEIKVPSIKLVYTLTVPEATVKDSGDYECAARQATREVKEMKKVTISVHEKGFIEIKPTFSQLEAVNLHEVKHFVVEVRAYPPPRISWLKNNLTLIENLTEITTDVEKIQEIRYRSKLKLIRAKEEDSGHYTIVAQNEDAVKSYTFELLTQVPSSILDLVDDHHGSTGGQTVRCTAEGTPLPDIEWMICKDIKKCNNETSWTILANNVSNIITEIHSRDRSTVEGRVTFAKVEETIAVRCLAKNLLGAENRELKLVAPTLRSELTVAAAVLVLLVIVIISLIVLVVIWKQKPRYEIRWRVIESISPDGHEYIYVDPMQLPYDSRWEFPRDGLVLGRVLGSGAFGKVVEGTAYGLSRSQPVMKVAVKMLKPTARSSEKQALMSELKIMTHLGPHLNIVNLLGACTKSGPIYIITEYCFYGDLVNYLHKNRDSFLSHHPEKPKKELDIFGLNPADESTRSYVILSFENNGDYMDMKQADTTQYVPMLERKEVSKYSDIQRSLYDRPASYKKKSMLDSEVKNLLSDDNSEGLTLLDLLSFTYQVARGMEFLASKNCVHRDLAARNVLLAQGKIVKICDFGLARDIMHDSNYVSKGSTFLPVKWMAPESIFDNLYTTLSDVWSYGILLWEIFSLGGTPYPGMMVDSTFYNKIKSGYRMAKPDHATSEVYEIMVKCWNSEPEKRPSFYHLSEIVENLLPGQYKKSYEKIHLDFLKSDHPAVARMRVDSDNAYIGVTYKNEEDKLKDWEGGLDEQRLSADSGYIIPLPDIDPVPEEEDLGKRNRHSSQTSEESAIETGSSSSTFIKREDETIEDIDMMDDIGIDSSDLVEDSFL
Method in brief: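 G-292 human osteosarcoma cells, serum-starved overnight in 0.1% FBS, were pretreated with compound in DMSO for 1 hr at 37 °C, then stimulated with 50 ng/ml PDGF-AA for 5 min. Lysates were captured on anti-phosphotyrosine PY-20 plates and probed with anti-PDGF-Ra plus HRP secondary; absorbance read at 450 nm.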

c-kit = target: T2, c-kit (Homo sapiens, UniProt P10721); assay: Inhibitory activity against c-kit autophosphorylation (MO7e cells, h-SCF); format: cell-based; settings: for IC50: MO7e cells, read-out: c-kit IC50; for inhibition at 1 µM: Mo7e; for inhibition at 1 µM / c-kit inhibition (%) at 1000 nM: at 1000 nM
T2 construct: MO7e (human megakaryocytic leukemia cell line) which had been arrested for 20 hr; endogenous in cells; host or cells: MO7e human megakaryocytic leukemia cell line
T2 sequence (P10721 26-976): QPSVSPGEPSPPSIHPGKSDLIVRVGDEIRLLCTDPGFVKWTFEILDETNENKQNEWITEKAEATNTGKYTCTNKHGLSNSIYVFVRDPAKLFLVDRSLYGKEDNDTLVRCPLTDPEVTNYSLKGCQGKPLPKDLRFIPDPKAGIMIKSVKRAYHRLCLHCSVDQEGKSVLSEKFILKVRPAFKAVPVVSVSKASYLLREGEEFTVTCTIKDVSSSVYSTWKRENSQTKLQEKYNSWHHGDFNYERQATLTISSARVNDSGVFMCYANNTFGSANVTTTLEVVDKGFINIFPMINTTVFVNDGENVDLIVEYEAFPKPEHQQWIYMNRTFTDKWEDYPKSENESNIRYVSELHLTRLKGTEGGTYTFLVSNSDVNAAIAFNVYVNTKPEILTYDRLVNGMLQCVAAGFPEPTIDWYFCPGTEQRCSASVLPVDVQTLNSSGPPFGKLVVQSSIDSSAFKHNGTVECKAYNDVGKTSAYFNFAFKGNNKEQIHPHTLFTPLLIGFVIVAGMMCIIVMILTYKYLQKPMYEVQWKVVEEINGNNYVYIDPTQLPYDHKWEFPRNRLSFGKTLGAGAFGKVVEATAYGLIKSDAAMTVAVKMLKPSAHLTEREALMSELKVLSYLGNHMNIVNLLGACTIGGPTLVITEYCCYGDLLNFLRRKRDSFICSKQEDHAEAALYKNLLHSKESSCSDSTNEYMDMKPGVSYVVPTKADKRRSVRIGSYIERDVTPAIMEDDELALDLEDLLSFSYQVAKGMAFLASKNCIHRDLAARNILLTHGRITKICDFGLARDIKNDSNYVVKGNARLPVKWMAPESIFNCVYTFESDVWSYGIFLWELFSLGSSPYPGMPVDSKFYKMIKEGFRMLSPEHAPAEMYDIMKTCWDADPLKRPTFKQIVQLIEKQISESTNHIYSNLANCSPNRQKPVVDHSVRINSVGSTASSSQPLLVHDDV
Method in brief: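 MO7e human megakaryocytic leukemia cells, arrested 20 hr, treated with compound 1 hr, then stimulated with 50 ng/ml h-SCF for 5 min and lysed. Lysates captured on immobilized anti-phosphotyrosine antibody, detected with anti-c-kit primary and HRP secondary antibody; absorbance at 450 nm.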

[1] = figure within parentheses in −( ) or >1000( )
[2] = figure within parentheses in >100( )

Compound | IC50 (PDGF-Ra) | IC50 (PDGF-Ra; Pharmacological Test Example 1) | IC50 (c-kit; h-SCF 50 ng/ml) | further results
COc1cc2nccc(Oc3cc(C)c(NC(=O)NCCN4CCOCC4)cc3C)c2cc1OC [Example 616, N-{4-[(6,7-Dimethoxy-4-quinolyl)oxy]-2,5-dimethylphenyl}-N′-(2-morpholinoethyl)urea] | 0.036 µM |  |  | IC50 (c-kit; 50 ng/ml h-SCF): 0.224 µM
C=CCOC(=O)Nc1cc(C)c(Oc2ccnc3cc(OC)c(OC)cc23)cc1C [Example 373, Allyl N-{4-[(6,7-dimethoxy-4-quinolyl)oxy]-2,5-dimethylphenyl}carbamate] |  | 0.043 µM | 0.071 µM | 
COc1cc2ncnc(Oc3ccc(NC(=O)OCc4ccccc4C)c([N+](=O)[O-])c3)c2cc1OC [Example 505, 2-Methylbenzyl N-{4-[(6,7-dimethoxy-4-quinazolinyl)oxy]-2-nitrophenyl}carbamate] | 0.053 µM |  |  | inhibition at 1 µM (c-kit; [1]): 25%
CCN(CCNC(=O)Nc1ccc(Oc2ncnc3cc(OC)c(OC)cc23)cc1Cl)c1cccc(C)c1 [Example 665, N-{2-Chloro-4-[(6,7-dimethoxy-4-quinazolinyl)oxy]phenyl}-N′-[2-(ethyl-3-methylanilino)ethyl]urea] | 0.011 µM |  |  | IC50 (c-kit; 50 ng/ml h-SCF): 0.122 µM
COc1cc2nccc(Oc3ccc(NC(=S)NC(=O)c4ccc(Cl)s4)cc3Cl)c2cc1OC [Example 695, N-{3-Chloro-4-[(6,7-dimethoxy-4-quinolyl)oxy]phenyl}-N′-[(5-chloro-2-thienyl)carbonyl]thiourea] | > 0.1 µM |  |  | inhibition at 0.1 µM (PDGF-Ra; [2]): 10%; inhibition at 1 µM (c-kit; [1]): 37%
COc1cc2nccc(Oc3ccc(NC(=O)NCCN(C(C)C)C(C)C)cc3)c2cc1OC [Example 654, N-[2-(Diisopropylamino)ethyl]-N′-{4-[(6,7-dimethoxy-4-quinolyl)oxy]phenyl}urea] | 0.019 µM |  |  | IC50 (c-kit; 50 ng/ml h-SCF): 0.698 µM
N-{4-[(6,7-Dimethoxy-4-quinolyl)oxy]-2-chlorophenyl}-N′-(1-piperidinyl)urea [Example 595] | 0.046 µM |  |  | c-kit inhibition (%) at 1000 nM (c-kit; [1]): −(0) %
COc1cc2nccc(Oc3ccc(NC(=O)OCC4CCCCC4)c(C)c3C)c2cc1OC [Example 285, Cyclohexylmethyl N-{4-[(6,7-dimethoxy-4-quinolyl)oxy]-2,3-dimethylphenyl}carbamate] |  | < 0.01 µM | 0.085 µM | 
COc1cc2nccc(Oc3ccc(NC(=S)NC(=O)Cc4ccccc4)c(C)c3C)c2cc1OC [Example 1105, N-{4-[(6,7-Dimethoxy-4-quinolyl)oxy]-2,3-dimethylphenyl}-N′-(2-phenylacetyl)thiourea] | > 0.1 µM |  |  | inhibition at 0.1 µM (PDGF-Ra; figure in parentheses in >100( )): 31%; c-kit inhibition (%) at 1000 nM (c-kit; figure in parentheses in −( ), 1 µM): −(1) %
COc1cc2nccc(Oc3ccc(NCCCOc4ccccc4)c(C)c3C)c2cc1OC [Example 887, N-{4-[(6,7-Dimethoxy-4-quinolyl)oxy]-2,3-dimethylphenyl}-N-(3-phenoxypropyl)amine] | 0.05 µM |  |  | inhibition at 1 µM (c-kit; figure in parentheses in −( )): 20%
COc1cc2nccc(Oc3ccc(NC(=S)NC(=O)COc4ccccc4C)cc3Cl)c2cc1OC [Example 740, N-{3-Chloro-4-[(6,7-dimethoxy-4-quinolyl)oxy]phenyl}-N′-[2-(2-methylphenoxy)acetyl]thiourea] | 0.023 µM |  |  | IC50 (c-kit; 50 ng/ml h-SCF): 0.335 µM
CCCC(CCN1CCN(C)CC1)OC(=O)Nc1cc(C)c(Oc2ccnc3cc(OC)c(OC)cc23)cc1C (centres unmarked) [Example 450, 1-[2-(4-Methylpiperazino)ethyl]butyl N-{4-[(6,7-dimethoxy-4-quinolyl)oxy]-2,5-dimethylphenyl}carbamate] | > 0.1 µM |  |  | inhibition at 0.1 µM (PDGF-Ra; [2]): 13%; inhibition at 1 µM (c-kit; [1]): 46%
COc1cccc(COC(=O)Nc2ccc(Oc3ccnc4cc(OC)c(OC)cc34)c(C)c2C)c1 [Example 238, 3-Methoxybenzyl N-{4-[(6,7-dimethoxy-4-quinolyl)oxy]-2,3-dimethylphenyl}carbamate] |  | 0.01 µM | 0.036 µM | 
COc1cc2nccc(Oc3cc(C)c(NC(=O)OCC4CCCC4)cc3C)c2cc1OC [Example 395, Cyclopentylmethyl N-{4-[(6,7-dimethoxy-4-quinolyl)oxy]-2,5-dimethylphenyl}carbamate] |  | 0.019 µM | 0.226 µM | 
COc1cc2nccc(Oc3ccc(NC(=S)NC(=O)CCC4CCCC4)cc3F)c2cc1OC [Example 1029, N-(3-Cyclopentylpropanoyl)-N′-{4-[(6,7-dimethoxy-4-quinolyl)oxy]-3-fluorophenyl}thiourea] | 0.005 µM |  |  | IC50 (c-kit; h-SCF stimulation): 0.126 µM
COc1cc2nccc(Oc3ccc(NC(=O)OCCCOc4cccc(F)c4)cc3)c2cc1OC [Example 147, 3-(3-Fluorophenoxy)propyl N-{4-[(6,7-dimethoxy-4-quinolyl)oxy]phenyl}carbamate] |  | 0.011 µM | < 0.03 µM | 

Compound | IC50 (PDGF-Ra) | IC50 (PDGF-Ra; Pharmacological Test Example 1) | IC50 (c-kit; h-SCF 50 ng/ml) | further results
COc1cc2ncnc(Oc3ccc(NC(=O)OCc4ccc(F)cc4)cc3)c2cc1OC [Example 11, 4-Fluorobenzyl N-{4-[(6,7-dimethoxy-4-quinazolinyl)oxy]phenyl}carbamate] |  | < 0.01 µM | 0.036 µM | 
COc1cc2ncnc(Oc3ccc(NC(=O)OCCCOc4cccc(F)c4)c(C)c3C)c2cc1OC [Example 151, 3-(3-Fluorophenoxy)propyl N-{4-[(6,7-dimethoxy-4-quinazolinyl)oxy]-2,3-dimethylphenyl}carbamate] |  | 0.012 µM | 0.032 µM | 
COc1cc2ncnc(Oc3ccc(NC(=O)OCCOc4cccc(F)c4)cc3)c2cc1OC [Example 210, 2-(3-Fluorophenoxy)ethyl N-{4-[(6,7-dimethoxy-4-quinazolinyl)oxy]phenyl}carbamate] |  | 0.016 µM | 0.095 µM | 
COc1cc2nccc(Oc3ccc(NC(=O)NCCN(C(C)C)C(C)C)c([N+](=O)[O-])c3)c2cc1OC [Example 658, N-[2-(Diisopropylamino)ethyl]-N′-{4-[(6,7-dimethoxy-4-quinolyl)oxy]-2-nitrophenyl}urea] | 0.019 µM |  |  | IC50 (c-kit; 50 ng/ml h-SCF): 0.389 µM
COc1cccc(OCCCOC(=O)Nc2ccc(Oc3ccnc4cc(OC)c(OC)cc34)c(C)c2C)c1 [Example 162, 3-(3-Methoxyphenoxy)propyl N-{4-[(6,7-dimethoxy-4-quinolyl)oxy]-2,3-dimethylphenyl}carbamate] |  | 0.016 µM | 0.162 µM | 
COc1cc2nccc(Oc3cc(C)c(NC(=O)OCCCN4CCOCC4)cc3C)c2cc1OC [Example 422, 3-Morpholinopropyl N-{4-[(6,7-dimethoxy-4-quinolyl)oxy]-2,5-dimethylphenyl}carbamate] | < 0.01 µM |  |  | IC50 (c-kit; 50 ng/ml h-SCF): 0.119 µM
COc1cc2nccc(Oc3ccc(NC(=O)Oc4ccccc4OC)cc3)c2cc1OC [Example 260, 2-Methoxyphenyl N-{4-[(6,7-dimethoxy-4-quinolyl)oxy]phenyl}carbamate] |  | 0.006 µM | 0.18 µM | 
COc1cc2nccc(Oc3cc(C)c(NC(=O)Oc4c(C)cccc4C)cc3C)c2cc1OC [Example 270, 2,6-Dimethylphenyl N-{4-[(6,7-dimethoxy-4-quinolyl)oxy]-2,5-dimethylphenyl}carbamate] |  | 0.065 µM | 0.471 µM | 
CCN(CC)CCNC(=O)Nc1ccc(Oc2ccnc3cc(OC)c(OC)cc23)cc1[N+](=O)[O-] [Example 646, N-[2-(Diethylamino)ethyl]-N′-{4-[(6,7-dimethoxy-4-quinolyl)oxy]-2-nitrophenyl}urea] | 0.011 µM |  |  | inhibition at 1 µM (c-kit; [1]): 0%
COc1cc2ncnc(Oc3ccc(NC(=S)NC(=O)C4CC4C)cc3)c2cc1OC (centres unmarked) [Example 1191, N-{4-[(6,7-Dimethoxy-4-quinazolinyl)oxy]phenyl}-N′-[(2-methylcyclopropyl)carbonyl]thiourea] | 0.031 µM |  |  | IC50 (c-kit; h-SCF stimulation): 0.193 µM
COc1cc2nccc(Oc3ccc(NC(=O)OC(C)C)c(C)c3C)c2cc1OC [Example 325, Isopropyl N-{4-[(6,7-dimethoxy-4-quinolyl)oxy]-2,3-dimethylphenyl}carbamate] |  | < 0.01 µM | 0.046 µM | 
COc1cc2nccc(Oc3cc(C)c(NC(=O)OCC4CCCCCC4)cc3C)c2cc1OC [Example 349, Cycloheptylmethyl N-{4-[(6,7-dimethoxy-4-quinolyl)oxy]-2,5-dimethylphenyl}carbamate] |  | 0.012 µM | 0.309 µM | 
COc1cc2nccc(Oc3ccc(NC(=O)OC(C)c4ccc(C)cc4)c(C)c3C)c2cc1OC (centres unmarked) [Example 133, 1-(4-Methylphenyl)ethyl N-{4-[(6,7-dimethoxy-4-quinolyl)oxy]-2,3-dimethylphenyl}carbamate] |  | 0.026 µM | 0.206 µM | 
COc1cc2nccc(Oc3ccc(NC(=O)NCCN4CCCCC4)cc3)c2cc1OC [Example 673, N-{4-[(6,7-Dimethoxy-4-quinolyl)oxy]phenyl}-N′-(2-piperidinoethyl)urea] | 0.015 µM |  |  | IC50 (c-kit; 50 ng/ml h-SCF): 0.426 µM
COc1cc2nccc(Oc3ccc(NC(=O)OCC4CC4)cc3)c2cc1OC [Example 380, Cyclopropylmethyl N-{4-[(6,7-dimethoxy-4-quinolyl)oxy]phenyl}carbamate] |  | < 0.01 µM | 0.045 µM | 
